This is an account of results in patent publication US20230143612A1 (Arbutus Biopharma Corporation, priority 2020, published 2023).

Chain of PD-L1 His protein / PD-1 Fc protein (Q9NZQ7 19-238 limits assumed): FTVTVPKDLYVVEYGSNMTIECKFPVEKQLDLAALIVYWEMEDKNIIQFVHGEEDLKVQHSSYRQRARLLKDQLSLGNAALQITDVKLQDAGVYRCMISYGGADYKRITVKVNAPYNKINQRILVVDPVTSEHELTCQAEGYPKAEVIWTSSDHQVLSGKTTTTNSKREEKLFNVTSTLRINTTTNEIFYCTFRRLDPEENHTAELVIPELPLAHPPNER

The target of the assay is PD-L1 His protein / PD-1 Fc protein (Homo sapiens, UniProt Q9NZQ7). The assay can be described thus: HTRF Assay (PD-1/PD-L1 interaction). To be noted: PD-L1 His 6 nM, PD-1 Fc 6 nM. The class given is binding. Here is the method:
PD-L1 His protein was prepared and added at the final concentration of 6 nM in the White opaque 384 well plate (Corning cat #3824BC). PD-L1 small molecule inhibitors were diluted by 3-fold starting from 20 μM and a final concentration of 0.001 μM and added to the well. PD-1 Fc protein was added at the final concentration of 6 nM. PD-L1 His protein, PD-L1 small molecule inhibitors, and PD1 Fc proteins were added to the well in this order, with each 5 μl volume, and were incubated for 15 minutes at room temperature. PAb anti-Human IgG-XL665 (Cisbio, cat #61HFCXLA) and Mab anti-6HIS Tb cryptate Gold (Cisbio, cat #61HI2TLA) were mixed at 6.7 nM and 0.35 nM respectively, and total 5 μl volume of mixture was added to the well and incubated at room temperature for 1 hour. The plate was read using PerkinElmer Envision plate reader and data was analyzed by Prism 6 software.
In general terms: Time-resolved FRET reads energy transfer from a long-lived donor to a nearby acceptor.
For orientation: IC50 means the concentration needed to halve the response being measured. The low end stands for inhibition by little substance, the high end for a need for much substance. As to `COc1nc(-c2cccc(-c3cccc(-c4cc5ncc(CNC[C@H](C)O)cc5cn4)c3Cl)c2Cl)ccc1CNC[C@@H]1CCC(=O)N1` [Example 333, (S)-5-((((6-(2,2′-Dichloro-3′-(3-((((S)-2-hydroxypropyl)amino)methyl)-1,6-naphthyridin-7-yl)-[1,1′-biphenyl]-3-yl)-2-methoxypyridin-3-yl)methyl)amino)methyl)pyrrolidin-2-one], half-maximal inhibition (IC50) was put at 0.7 nM. Under `COC(=O)C1(CNCc2cnc3cc(-c4cccc(-c5cccc(-c6ccc(CNC[C@@H]7CCC(=O)N7)c(OC)n6)c5Cl)c4Cl)ccn3c2=O)COC1` [Example 358, methyl (S)-3-((((8-(2,2′-dichloro-3′-(6-methoxy-5-((((5-oxopyrrolidin-2-yl)-methyl)-amino)-methyl)-pyridin-2-yl)-[1,1′-biphenyl]-3-yl)-4-oxo-4H-pyrido[1,2-a]pyrimidin-3-yl)-methyl)-amino)-methyl)oxetane-3-carboxylate] stands 0.1 nM; under `COc1nc(-c2cccc(-c3cccc(-c4ccc5cc(CNC[C@@H]6CCC(=O)N6)ccc5n4)c3Cl)c2Cl)ccc1CNC[C@@H]1CCC(=O)N1` [Example 369, (5S)-5-[[[2-[2-Chloro-3-[2-chloro-3-[6-methoxy-5-[[[(2S)-5-oxopyrrolidin-2-yl]methylamino]methyl]-2-pyridyl]phenyl]phenyl]-6-quinolyl]methylamino]methyl]pyrrolidin-2-one], 560 nM; under `COc1nc(-c2cccc(-c3cccc(-c4ccn5c(=O)c(CN(C)C[C@@H]6CCC(=O)N6)cnc5c4)c3C)c2Cl)ccc1CN1CC(O)C1` [Example 55, (S)-8-(2′-Chloro-3′-(5-((3-hydroxyazetidin-1-yl)methyl)-6-methoxypyridin-2-yl)-2-methyl-[1,1′-biphenyl]-3-yl)-3-((methyl((5-oxopyrrolidin-2-yl)methyl)amino)methyl)-4H-pyrido[1,2-a]pyrimidin-4-one], 43 nM. Under `COc1nc(-c2cccc(-c3cccc(-c4ccc5c(CN(C)CCO)cn(C)c5n4)c3Cl)c2Cl)ccc1CNC[C@@H]1CCC(=O)N1` [Example 412, (5S)-5-[[[6-[2-Chloro-3-[2-chloro-3-[3-[[2-hydroxyethyl(methyl)amino]methyl]-1-methyl-pyrrolo[2,3-b]pyridin-6-yl]phenyl]phenyl]-2-methoxy-3-pyridyl]methylamino]methyl]pyrrolidin-2-one] stands 5.2 nM; under `COc1nc(-c2cccc(-c3cccc(-c4ccc5nn(CCCN6C(=O)c7ccccc7C6=O)c(=O)n5c4)c3Cl)c2Cl)ccc1CNC[C@@H]1CCC(=O)N1` [Example 391, (S)-2-(3-(6-(2,2′-Dichloro-3′-(6-methoxy-5-((((5-oxopyrrolidin-2-yl)methyl)amino)methyl)pyridin-2-yl)-[1,1′-biphenyl]-3-yl)-3-oxo-[1,2,4]triazolo[4,3-a]pyridin-2(3H)-yl)propyl)isoindoline-1,3-dione], 65 nM; under `COc1nc(-c2cccc(-c3cccc(-c4cc5c(=O)n(C)c(CN[C@H]6C[C@](C)(O)C6)nn5c4)c3Cl)c2Cl)cc(Cl)c1CNC[C@@H]1CCC(=O)N1` [Example 464, 6-(2,2′-dichloro-3′-(4-chloro-6-methoxy-5-(((((S)-5-oxopyrrolidin-2-yl)methyl)amino)methyl)pyridin-2-yl)-[1,1′-biphenyl]-3-yl)-2-((((1r,3r)-3-hydroxy-3-methylcyclobutyl)amino)methyl)-3-methylpyrrolo[2,1-f][1,2,4]triazin-4(3H)-one], 7.5 nM. The compound `COc1nc(-c2cccc(-c3cccc(-c4ccn5c(=O)c(CN[C@H]6CCOC[C@@H]6O)cnc5c4)c3Cl)c2Cl)ccc1CNC[C@@H]1CCC(=O)N1` [Example 163] returned a half-maximal inhibitory concentration (IC50) of 0.8 nM. For the compound `COc1nc(-c2cccc(-c3cccc(-c4ccn5c(=O)c(CNC(C)(C)C(=O)O)cnc5c4)c3Cl)c2Cl)ccc1CNC[C@@H]1CCC(=O)N1` [Example 184, (S)-2-(((8-(2,2′-Dichloro-3′-(6-methoxy-5-((((5-oxopyrrolidin-2-yl)methyl)amino)methyl)pyridin-2-yl)-[1,1′-biphenyl]-3-yl)-4-oxo-4H-pyrido[1,2-a]pyrimidin-3-yl)methyl)amino)-2-methylpropanoic acid], the IC50 came out at 0.1 nM. In turn, `COc1nc(-c2cccc(-c3cccc(-c4cc(C)n5c(=O)c(CNC[C@H](C)O)cnc5c4)c3Cl)c2Cl)ccc1CNC[C@@H]1CCC(=O)N1` [Example 226, 8-(2,2′-Dichloro-3′-(6-methoxy-5-(((((S)-5-oxopyrrolidin-2-yl)methyl)amino)methyl)pyridin-2-yl)-[1,1′-biphenyl]-3-yl)-3-((((S)-2-hydroxypropyl)amino)methyl)-6-methyl-4H-pyrido[1,2-a]pyrimidin-4-one] yielded an IC50 of 15 nM. Under `COc1nc(-c2cccc(-c3cccc(-c4ccn5cc(CNC[C@@H]6CCC(=O)N6)nc5c4)c3Cl)c2Cl)ccc1CNC[C@@H]1CCC(=O)N1` [Example 357, (5S)-5-[[[6-[2-Chloro-3-[2-chloro-3-[2-[[[(2S)-5-oxopyrrolidin-2-yl]methylamino]methyl]imidazo[1,2-a]pyridin-7-yl]phenyl]phenyl]-2-methoxy-3-pyridyl]methylamino]methyl]pyrrolidin-2-one] stands 50 nM; under `COc1nc(-c2cccc(-c3cccc(-c4ccn5c(=O)c(CNC[C@@H]6CCC(=O)N6)cnc5c4)c3Cl)c2Cl)ccc1CN[C@H]1C[C@H](O)C1` [Example 158, 8-(2,2′-Dichloro-3′-(5-((((1r,3r)-3-hydroxycyclobutyl)amino)methyl)-6-methoxypyridin-2-yl)-[1,1′-biphenyl]-3-yl)-3-(((((S)-5-oxopyrrolidin-2-yl)methyl)amino)methyl)-4H-pyrido[1,2-a]pyrimidin-4-one], 2 nM; under `COc1nc(-c2cccc(-c3cccc(-c4ccn5c(=O)c(C)c(CNC[C@H](C)O)nc5c4)c3Cl)c2Cl)ccc1CNC[C@@H]1CCC(=O)N1` [Example 377, 8-(2,2′-Dichloro-3′-(6-methoxy-5-(((((S)-5-oxopyrrolidin-2-yl)methyl)amino)methyl)pyridin-2-yl)-[1,1′-biphenyl]-3-yl)-2-((((S)-2-hydroxypropyl)amino)methyl)-3-methyl-4H-pyrido[1,2-a]pyrimidin-4-one], 21 nM. Under `Cc1c(COc2cc(OCc3cncc(C#N)c3)c(CNCCO)cc2Cl)cccc1-c1cccc(-c2ccc3c(c2)N(C)C(=O)CCC3NCCO)c1C` (centres unmarked) [Example 22, 5-((4-Chloro-5-((3′-(5-((2-hydroxyethyl)amino)-1-methyl-2-oxo-2,3,4,5-tetrahydro-1H-benzo[b]azepin-8-yl)-2,2′-dimethyl-[1,1′-biphenyl]-3-yl)methoxy)-2-(((2-hydroxyethyl)amino)methyl)phenoxy)methyl)nicotinonitrile] stands 6 nM; under `Cc1c(-c2ccn3c(=O)c(CNCCO)cnc3c2)cccc1-c1cccc(COc2cc(OCc3cncc(C#N)c3)c(CNCCO)cc2Cl)c1C#N` [Example 16, 5-((4-Chloro-5-((2-cyano-3′-(3-(((2-hydroxyethyl)amino)methyl)-4-oxo-4H-pyrido[1,2-a]pyrimidin-8-yl)-2′-methyl-[1,1′-biphenyl]-3-yl)methoxy)-2-(((2-hydroxyethyl)amino)methyl)phenoxy)methyl)nicotinonitrile], 0.7 nM.

For the compound `COC(=O)C1CN(Cc2c(C)nc3cc(-c4cccc(-c5cccc(-c6ccc(CNC[C@@H]7CCC(=O)N7)c(OC)n6)c5Cl)c4Cl)ccn3c2=O)C1` [Example 296, (S)-Methyl 1-((8-(2,2′-dichloro-3′-(6-methoxy-5-((((5-oxopyrrolidin-2-yl)methyl)amino)methyl)pyridin-2-yl)-[1,1′-biphenyl]-3-yl)-2-methyl-4-oxo-4H-pyrido[1,2-a]pyrimidin-3-yl)methyl)azetidine-3-carboxylate], it took 0.5 nM to reach half-maximal inhibition (IC50). In turn, `COc1nc(-c2cccc(-c3cccc(-c4cnc5oc(CNC[C@@H]6CCC(=O)N6)cc5c4)c3Cl)c2Cl)ccc1CNC[C@@H]1CCC(=O)N1` [Example 459, (S)-5-((((6-(2,2′-Dichloro-3′-(2-(((((S)-5-oxopyrrolidin-2-yl)methyl)amino)methyl)furo[2,3-b]pyridin-5-yl)-[1,1′-biphenyl]-3-yl)-2-methoxypyridin-3-yl)methyl)amino)methyl)pyrrolidin-2-one] showed an IC50 of 200 nM. Under `O=C1CC[C@@H](CNC2COc3nc(-c4cccc(-c5cccc(-c6ccc7c(n6)OCC7NC[C@@H]6CCC(=O)N6)c5Cl)c4Cl)ccc32)N1` (stereo partly drawn) [Example 44, (5S,5'S)-5,5′-((((2,2′-Dichloro-[1,1′-biphenyl]-3,3′-diyl)bis(2,3-dihydrofuro[2,3-b]pyridine-6,3-diyl))bis(azanediyl))bis(methylene))bis(pyrrolidin-2-one)] stands 550 nM; under `COc1nc(-c2cccc(-c3cccc(-c4ccn5c(=O)c(CNCCNC(C)=O)cnc5c4)c3Cl)c2Cl)ccc1CNCCNC(C)=O` [Example 69, N-(2-(((6-(3′-(3-(((2-Acetamidoethyl)amino)methyl)-4-oxo-4H-pyrido[1,2-a]pyrimidin-8-yl)-2,2′-dichloro-[1,1′-biphenyl]-3-yl)-2-methoxypyridin-3-yl)methyl)amino)ethyl)acetamide], 1.9 nM; under `COc1nc(-c2cccc(-c3cccc(-c4ccn5c(=O)c(CN[C@H]6C[C@](C)(O)C6)c(OC)nc5c4)c3Cl)c2Cl)ccc1CNC[C@@H]1CCC(=O)N1` [Example 348, 8-(2,2′-Dichloro-3′-(6-methoxy-5-(((((S)-5-oxopyrrolidin-2-yl)methyl)amino)methyl)pyridin-2-yl)-[1,1′-biphenyl]-3-yl)-3-((((1r,3r)-3-hydroxy-3-methylcyclobutyl)amino)methyl)-2-methoxy-4H-pyrido[1,2-a]pyrimidin-4-one], 2.2 nM.
